Results reported in the supplement of paper PMC11061612.

Columns and labels:
[1] = compound: C1CC(C1)(C(=O)[O-])C(=O)[O-].N.N.[Pt+2] [Carboplatin]; conditions: max 10 µM
Method in brief: (§1)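 Cancer cell lines were plated in 1536-well plates in 7.5 μl of DMEM/F12 or RPMI with 10% FBS and kept 24 hours at 37°C and 5% CO2 before 72 hours of dosing, with final DMSO typically 0.2%. CellTiter-Glo 2.0 luminescence measured viability, scaled between blank-well and DMSO-well means. Dose responses were fitted to a two-parameter logistic curve with a non-linear mixed effects model. This fit gives the single-agent IC50.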

[2] = compound: C1CN(CCC1(C(=O)N[C@@H](CCO)C2=CC=C(C=C2)Cl)N)C3=NC=NC4=C3C=CN4 [AZD5363]; conditions: max 10 µM
Method in brief: as §1

[3] = compound: C=CCn1c(=O)c2cnc(Nc3ccc(N4CCN(C)CC4)cc3)nc2n1-c1cccc(C(C)(C)O)n1 [AZD1775]; conditions: max 3 µM
Method in brief: as §1

[4] = compound: CC(=O)Nc1cccc(-n2c(=O)n(C3CC3)c(=O)c3c(Nc4ccc(I)cc4F)n(C)c(=O)c(C)c32)c1 [Trametinib]; conditions: max 1 µM
Method in brief: as §1

[5] = compound: CC(=O)O[C@H]1C(=O)[C@@]2(C)[C@H]([C@H](OC(=O)c3ccccc3)[C@]3(O)C[C@H](OC(=O)[C@H](O)[C@@H](NC(=O)c4ccccc4)c4ccccc4)C(C)=C1C3(C)C)[C@]1(OC(C)=O)CO[C@@H]1C[C@@H]2O [Paclitaxel]; conditions: max 3 µM
Method in brief: as §1

[6] = compound: CC(=O)c1c(C)c2cnc(Nc3ccc(N4CCNCC4)cn3)nc2n(C2CCCC2)c1=O [Palbociclib]; conditions: max 10 µM
Method in brief: as §1

[7] = compound: CC(C)n1c(=O)n(C)c2cnc3cc(F)c(-c4ccc(OCCCN5CCCCC5)nc4)cc3c21 [AZD1390]; conditions: max 0.3 µM
Method in brief: as §1

[8] = compound: CC1(C)CCC(CN2CCN(c3ccc(C(=O)NS(=O)(=O)c4ccc(NCC5CCOCC5)c([N+](=O)[O-])c4)c(Oc4cnc5[nH]ccc5c4)c3)CC2)=C(c2ccc(Cl)cc2)C1 [Venetoclax]; conditions: max 1 µM
Method in brief: as §1

[9] = compound: CC1=C(C(=CC=C1)Cl)NC(=O)C2=CN=C(S2)NC3=CC(=NC(=N3)C)N4CCN(CC4)CCO [Dasatinib]; conditions: max 2 µM
Method in brief: as §1

[10] = compound: CC1=CN2[C@@H](C1)C=NC3=CC(=C(C=C3C2=O)OC)OCCCCCOC4=C(C=C5C(=C4)N=C[C@@H]6CC(=CN6C5=O)C)OC [SG3199]; conditions: max 0.001 µM
Method in brief: as §1

[11] = compound: CCN(CCO)CCCOc1ccc2c(Nc3cc(CC(=O)Nc4cccc(F)c4)[nH]n3)ncnc2c1 [AZD2811]; conditions: max 1 µM
Method in brief: as §1

[12] = compound: CCc1c2c(nc3ccc(O)cc13)-c1cc3c(c(=O)n1C2)COC(=O)[C@]3(O)CC [SN-38]; conditions: max 0.3 µM
Method in brief: as §1

[13] = compound: CN(C)CCCOc1ccc(-c2ccc3ncc4c(c3c2)n(C2CCOCC2)c(=O)n4C)cn1 [AZD0156]; conditions: max 3 µM
Method in brief: as §1

[14] = compound: CN(CC[C@H](CSC1=CC=CC=C1)NC2=C(C=C(C=C2)S(=O)(=O)NC(=O)C3=CC=C(C=C3)N4CCC(CC4)[C@H](C5=CC=CC=C5C6=CC=C(C=C6)Cl)O)S(=O)(=O)C(F)(F)F)CCO [AZD4320]; conditions: max 1 µM
Method in brief: as §1

[15] = compound: COc1cc(Nc2ncc3c(n2)-c2ccc(Cl)cc2C(c2c(F)cccc2OC)=NC3)ccc1C(=O)O [Alisertib]; conditions: max 10 µM
Method in brief: as §1

[16] = compound: COc1cc([C@@H]2c3cc4c(cc3[C@@H](O[C@@H]3O[C@@H]5CO[C@@H](C)O[C@H]5[C@H](O)[C@H]3O)[C@H]3COC(=O)[C@H]23)OCO4)cc(OC)c1O [Etoposide]; conditions: max 10 µM
Method in brief: as §1

[17] = compound: COc1cc2ncnc(Nc3ccc(F)c(Cl)c3)c2cc1OCCCN1CCOCC1 [Gefitinib]; conditions: max 10 µM
Method in brief: as §1

[18] = compound: COc1cccc(OCCCN)c1-c1cc(Nc2cnc(C#N)cn2)n[nH]1 [Prexasertib]; conditions: max 1 µM
Method in brief: as §1

[19] = compound: COc1cccc2c1C(=O)c1c(O)c3c(c(O)c1C2=O)C[C@@](O)(C(=O)CO)C[C@@H]3O[C@H]1C[C@H](N)[C@H](O)[C@H](C)O1 [Doxorubicin]; conditions: max 1 µM
Method in brief: as §1

[20] = compound: COc1nnc2ccc(N3CCC(c4ccc(OCCN5CCN(C)C(=O)[C@H]5C)cc4)CC3)nn12 [AZD5153]; conditions: max 1 µM
Method in brief: as §1

[21] = compound: CS(=O)(=O)CCNCc1ccc(-c2ccc3ncnc(Nc4ccc(OCc5cccc(F)c5)c(Cl)c4)c3c2)o1 [Lapatinib]; conditions: max 10 µM
Method in brief: as §1

[22] = compound: C[C@@H](Nc1cc(F)cc(F)c1)c1cc(C(=O)N(C)C)cc2c(=O)cc(N3CCOCC3)oc12 [AZD8186]; conditions: max 10 µM
Method in brief: as §1

[23] = compound: C[C@@H](Oc1cc(-c2cnn(C3CCNCC3)c2)cnc1N)c1c(Cl)ccc(F)c1Cl [Crizotinib]; conditions: max 10 µM
Method in brief: as §1

[24] = compound: C[C@@H](c1ccc2nccn2c1)n1nnc2ncc(-c3cnn(C)c3)nc21 [Savolitinib]; conditions: max 1 µM
Method in brief: as §1

[25] = compound: C[C@@H]1COCCN1C2=NC(=NC(=C2)C3(CC3)[S@](=N)(=O)C)C4=C5C=CNC5=NC=C4 [AZD6738]; conditions: max 10 µM
Method in brief: as §1

[26] = compound: Cc1c2c(nn1C)CSCc1cc(n(C)n1)CSc1cc(c3ccccc3c1)OCCCc1c(C(=O)O)n(C)c3c-2c(Cl)ccc13 [AZD5991]; conditions: max 1 µM
Method in brief: as §1

[27] = compound: Cc1cc2ncnn2cc1Nc1ncc2c(n1)n(C1CCOCC1)c(=O)n2C [AZD7648]; conditions: max 10 µM
Method in brief: as §1

[28] = compound: Cc1nc(-c2cn3c(n2)-c2ccc(-c4cnn(C(C)(C)C(N)=O)c4)cc2OCC3)n(C(C)C)n1 [Taselisib]; conditions: max 10 µM
Method in brief: as §1

[29] = compound: Cn1cnc2c(F)c(Nc3ccc(Br)cc3Cl)c(C(=O)NOCCO)cc21 [Selumetinib]; conditions: max 10 µM
Method in brief: as §1

[30] = compound: N#Cc1cnc(Nc2cc(NC[C@H]3CNCCO3)c(C(F)(F)F)cn2)cn1 [SRA737]; conditions: max 10 µM
Method in brief: as §1

[31] = compound: NC1(c2ccc(-c3nc4ccn5c(=O)[nH]nc5c4cc3-c3ccccc3)cc2)CCC1 [MK-2206]; conditions: max 10 µM
Method in brief: as §1

[32] = compound: Nc1ccn([C@@H]2O[C@H](CO)[C@@H](O)C2(F)F)c(=O)n1 [Gemcitabine]; conditions: max 0.3 µM
Method in brief: as §1

[33] = compound: O=C(Nc1ccc2[nH]nc(-c3ccncc3)c2c1)[C@@H]1CCN(CC(=O)N2CCN(c3ccc(-c4ncccn4)cc3)CC2)C1; conditions: max 5 µM
Method in brief: as §1

[34] = compound: O=C(c1cc(Cc2n[nH]c(=O)c3ccccc23)ccc1F)N1CCN(C(=O)C2CC2)CC1 [Olaparib]; conditions: max 10 µM
Method in brief: as §1

[35] = compound: O=c1[nH]cc(F)c(=O)[nH]1 [5-Fluorouracil]; conditions: max 20 µM
Method in brief: as §1

| Cell Line | IC50, cell viability 72 h [1] | IC50, cell viability 72 h [2] | IC50, cell viability 72 h [3] | IC50, cell viability 72 h [4] | IC50, cell viability 72 h [5] | IC50, cell viability 72 h [6] | IC50, cell viability 72 h [7] | IC50, cell viability 72 h [8] | IC50, cell viability 72 h [9] | IC50, cell viability 72 h [10] | IC50, cell viability 72 h [11] | IC50, cell viability 72 h [12] | IC50, cell viability 72 h [13] | IC50, cell viability 72 h [14] | IC50, cell viability 72 h [15] | IC50, cell viability 72 h [16] | IC50, cell viability 72 h [17] | IC50, cell viability 72 h [18] | IC50, cell viability 72 h [19] | IC50, cell viability 72 h [20] | IC50, cell viability 72 h [21] | IC50, cell viability 72 h [22] | IC50, cell viability 72 h [23] | IC50, cell viability 72 h [24] | IC50, cell viability 72 h [25] | IC50, cell viability 72 h [26] | IC50, cell viability 72 h [27] | IC50, cell viability 72 h [28] | IC50, cell viability 72 h [29] | IC50, cell viability 72 h [30] | IC50, cell viability 72 h [31] | IC50, cell viability 72 h [32] | IC50, cell viability 72 h [33] | IC50, cell viability 72 h [34] | IC50, cell viability 72 h [35] |
| --- | --- | --- | --- | --- | --- | --- | --- | --- | --- | --- | --- | --- | --- | --- | --- | --- | --- | --- | --- | --- | --- | --- | --- | --- | --- | --- | --- | --- | --- | --- | --- | --- | --- | --- | --- |
| SW1116 (Colorectal Carcinoma) | > 10 µM | > 10 µM | > 3 µM | 0.242 µM | 2.74 µM | > 10 µM | > 0.3 µM | > 1 µM | > 2 µM | > 0.001 µM | > 1 µM | > 0.3 µM | > 3 µM | > 1 µM | > 10 µM | > 10 µM | > 10 µM | 0.824 µM | > 1 µM | > 1 µM | > 10 µM | > 10 µM | > 10 µM | > 1 µM | > 10 µM | > 1 µM | > 10 µM | > 10 µM | > 10 µM | > 10 µM | > 10 µM | > 0.3 µM | > 5 µM | > 10 µM | > 20 µM |
| SW1271 (Small Cell Lung Carcinoma) | > 10 µM | > 10 µM | 1.97 µM | 0.614 µM | 0.63 µM | > 10 µM | > 0.3 µM | > 1 µM | > 2 µM | > 0.001 µM | > 1 µM | 0.143 µM | > 3 µM | > 1 µM | > 10 µM | > 10 µM | > 10 µM | 0.137 µM | > 1 µM | 0.947 µM | > 10 µM | > 10 µM | > 10 µM | > 1 µM | > 10 µM | > 1 µM | > 10 µM | > 10 µM | > 10 µM | > 10 µM | > 10 µM | > 0.3 µM | > 5 µM | > 10 µM | > 20 µM |
